Test results taken from US20210121527A1, “METHODS OF TREATING MINIMAL RESIDUAL CANCER” (ICAHN SCHOOL OF MEDICINE AT MOUNT SINAI, priority 2018, published 2021).

Columns and labels:
[1] = test system: ATF4-Luc activity; experiment: ATF4-luc assay, tunicamycin-induced, 293 cells; conditions: Homo sapiens, HEK293; tunicamycin-induced ATF4-Luc activity in 293 cells; read-out: ATF4-luc Cell-based IC50
Method: ATF4-luc assay: 293 cells were transduced with an ATF4-luc expressing lentivirus (SABiosciences, Frederick, Md.) and selected in growth medium containing 1 μg/ml puromycin. To determine the effect of compounds on ER stress-induced ATF4 activity, 293-ATF4-luc cells were seeded at 15,000 cells per well in poly-D-Lysine coated 96-well plates and allowed to attach overnight. The cells were then pre-treated with test compounds for 30 minutes. Tunicamycin (2 μM) was added to induce ER stress and the plates were incubated at 37° C. for 6 hours. The culture media was then aspirated and the cells were lysed in passive lysis buffer (Promega Cat # E194A) on a plate shaker for 5 minutes. Luciferase activity was monitored using Luciferase Assay Reagent (Promega Cat # E1501) in a Wallac 1420 Victor2™ Multilabel Counter (PerkinElmer, Waltham, Mass.) and IC50 values were determined from the resulting fitted inhibition curves using un-induced (100% inhibition) and induced (0% inhibition) wells as controls.

[2] = target: T1, GCN2 catalytic domain (Homo sapiens, UniProt Q9P2K8); experiment: GCN2 biochemical TR-FRET kinase assay using purified eIF2a as substrate; conditions: read-out: GCN2 Enzyme IC50
T1 construct: HIS-SUMO-GCN2 catalytic domain (amino acids 584-1019); HIS (N); SUMO (N); made in house; host or cells: E. coli
T1 sequence (Q9P2K8 584-1019): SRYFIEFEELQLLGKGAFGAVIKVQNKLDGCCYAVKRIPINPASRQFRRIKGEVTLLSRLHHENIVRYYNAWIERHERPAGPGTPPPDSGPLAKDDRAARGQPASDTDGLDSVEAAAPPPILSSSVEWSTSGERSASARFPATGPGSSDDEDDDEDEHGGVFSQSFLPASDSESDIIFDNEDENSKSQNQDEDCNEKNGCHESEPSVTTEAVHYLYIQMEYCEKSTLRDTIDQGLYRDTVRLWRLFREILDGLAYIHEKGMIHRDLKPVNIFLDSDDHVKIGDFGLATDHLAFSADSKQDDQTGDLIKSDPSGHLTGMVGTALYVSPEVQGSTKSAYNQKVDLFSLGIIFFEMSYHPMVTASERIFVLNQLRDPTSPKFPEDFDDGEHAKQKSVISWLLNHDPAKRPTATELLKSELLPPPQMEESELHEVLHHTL
Method: (§1) TR-FRET kinase assays were performed in the absence or presence of inhibitors in a reaction buffer consisting of 50 mM HEPES, pH 7.5, 10 mMMgCl2, 1.0 mM EGTA, and 0.01% Brij-35, and 100-200 nM GFP-eIF2a substrate. […] Following the addition of test compound, the reaction was initiated by addition of enzyme and incubated at room temperature for 45 minutes. The reaction was stopped by addition of EDTA to a final concentration of 10 mM and Terbium-labelled phospho-eIF2α antibody was added at a final concentration of 2 nM and incubated for 90 minutes. The resulting fluorescence was monitored in an EnVison® Multilabel reader (PerkinElmer, Waltham, Mass.). TR-FRET ratios and the resulting IC50 values were determined from the fitted inhibition curves. Biochemical specificity profiling was performed at Cerep (Redmond, Wash.) and DiscoverX (San Diego, Calif.).

[3] = target: 456 kinases; experiment: DiscoveRx scanMAX kinase profiling, number of kinases inhibited; type: binding; conditions: for # kinases inhibited >50%: 456 kinases tested; for number of kinases with >60% inhibition: 20 μM as stated in text, 456 kinases
Method: as §1, with “Biochemical assays: Recombinant human EIF2AK3 (PERK) catalytic domain (amino acids 536-1116; Cat # PV5107), GFP-eIF2a (Cat # PV4809) substrate, and Terbium-labelled phospho-eIF2a antibody (Cat # PR8956B) were purchased from Invitrogen (Carlsbad, Calif.). HIS-SUMO-GCN2 catalytic domain (amino acids 584-1019) was expressed and purified from E. coli. TR-FRET kinase” for “TR-FRET kinase”

[4] = test system: secondary kinase targets; experiment: Kinase selectivity by enzymatic biochemical assay (FIG. 2E); conditions: enzymatic assays
Method: as §1, with “Biochemical assays: Recombinant human EIF2AK3 (PERK) catalytic domain (amino acids 536-1116; Cat # PV5107), GFP-eIF2a (Cat # PV4809) substrate, and Terbium-labelled phospho-eIF2a antibody (Cat # PR8956B) were purchased from Invitrogen (Carlsbad, Calif.). HIS-SUMO-GCN2 catalytic domain (amino acids 584-1019) was expressed and purified from E. coli. TR-FRET kinase” for “TR-FRET kinase”

[5] = target: T2, ERK1 (MAPK3) (Homo sapiens, UniProt P27361); experiment: DiscoveRx scanMAX kinase profiling; type: binding; conditions: read-out: Direct inhibitory activity on ERK1 (KINOMEscan)
T2 construct: purchased DiscoverX (San Diego, Calif.) scanMAX
T2 sequence (P27361 whole entry): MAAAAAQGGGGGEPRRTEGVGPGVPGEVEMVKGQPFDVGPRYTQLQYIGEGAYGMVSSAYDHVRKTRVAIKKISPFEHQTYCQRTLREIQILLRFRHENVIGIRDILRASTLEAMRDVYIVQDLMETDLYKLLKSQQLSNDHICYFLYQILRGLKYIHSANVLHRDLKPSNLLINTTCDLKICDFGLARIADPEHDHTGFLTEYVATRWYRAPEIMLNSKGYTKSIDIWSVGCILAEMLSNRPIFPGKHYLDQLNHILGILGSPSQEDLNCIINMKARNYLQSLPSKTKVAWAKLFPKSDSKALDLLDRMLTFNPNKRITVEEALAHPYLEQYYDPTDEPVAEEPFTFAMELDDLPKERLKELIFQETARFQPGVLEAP
Method: as §1, with “Biochemical assays: Recombinant human EIF2AK3 (PERK) catalytic domain (amino acids 536-1116; Cat # PV5107), GFP-eIF2a (Cat # PV4809) substrate, and Terbium-labelled phospho-eIF2a antibody (Cat # PR8956B) were purchased from Invitrogen (Carlsbad, Calif.). HIS-SUMO-GCN2 catalytic domain (amino acids 584-1019) was expressed and purified from E. coli. TR-FRET kinase” for “TR-FRET kinase”

[6] = target: T3, GCN2 (Kin.Dom.2,S808G) (EIF2AK4) (Homo sapiens, UniProt Q9P2K8, S808G); experiment: DiscoveRx scanMAX kinase profiling; type: binding; conditions: read-out: Inhibition of GCN2/EIF2AK4 (KINOMEscan)
T3 construct: Kin.Dom.2; purchased DiscoverX (San Diego, Calif.) scanMAX
T3 sequence (Q9P2K8 590-1001 S808G limits assumed): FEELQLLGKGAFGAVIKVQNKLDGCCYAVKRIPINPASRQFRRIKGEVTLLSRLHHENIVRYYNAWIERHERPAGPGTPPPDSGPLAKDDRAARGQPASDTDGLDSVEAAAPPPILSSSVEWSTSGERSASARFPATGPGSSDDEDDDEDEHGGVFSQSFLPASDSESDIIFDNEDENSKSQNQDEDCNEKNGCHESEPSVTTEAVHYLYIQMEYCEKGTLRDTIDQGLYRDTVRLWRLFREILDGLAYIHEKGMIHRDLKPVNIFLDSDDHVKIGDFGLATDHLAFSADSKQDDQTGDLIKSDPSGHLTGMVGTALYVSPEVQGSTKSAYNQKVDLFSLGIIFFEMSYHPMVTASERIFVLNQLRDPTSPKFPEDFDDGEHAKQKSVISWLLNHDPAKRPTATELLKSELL
Method: as §1

[7] = target: T4, PRKR (EIF2AK2) (Homo sapiens, UniProt P19525); experiment: DiscoveRx scanMAX kinase profiling; type: binding; conditions: read-out: Inhibition of PRKR/EIF2AK2 (KINOMEscan)
T4 construct: purchased DiscoverX (San Diego, Calif.) scanMAX
T4 sequence (P19525 whole entry): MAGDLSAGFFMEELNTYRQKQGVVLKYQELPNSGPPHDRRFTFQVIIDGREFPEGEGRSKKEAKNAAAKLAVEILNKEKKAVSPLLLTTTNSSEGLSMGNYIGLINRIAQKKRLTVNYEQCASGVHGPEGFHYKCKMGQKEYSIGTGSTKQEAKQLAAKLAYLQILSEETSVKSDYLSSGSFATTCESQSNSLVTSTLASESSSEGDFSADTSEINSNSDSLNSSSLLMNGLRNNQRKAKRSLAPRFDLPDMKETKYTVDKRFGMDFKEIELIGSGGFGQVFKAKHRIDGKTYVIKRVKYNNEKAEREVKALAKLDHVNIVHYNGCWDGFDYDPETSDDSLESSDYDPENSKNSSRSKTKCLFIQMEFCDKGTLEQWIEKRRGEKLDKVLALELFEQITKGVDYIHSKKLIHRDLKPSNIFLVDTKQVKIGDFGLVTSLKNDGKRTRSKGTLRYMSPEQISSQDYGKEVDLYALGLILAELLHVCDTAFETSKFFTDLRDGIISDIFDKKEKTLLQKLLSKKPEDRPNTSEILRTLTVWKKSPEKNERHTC
Method: as §1

Compound: Cc1cc(NC(=O)[C@H](O)c2cccc(F)c2)ccc1-c1cn(C)c2ncnc(N)c12 [LY3, (2R)-N-[4-(4-amino-7-methyl-pyrrolo[2,3-d]pyrimidin-5-yl)-3-methyl-phenyl]-2-(3-fluorophenyl)-2-hydroxy-acetamide]
- IC50 [1]: 16 nM
- IC50 [2]: 16.4 µM
- # kinases inhibited >50% ([3]; 0.2 μM): 27
- # kinases inhibited >50% ([3]; 2.0 μM): 85
- # kinases inhibited >50% ([3]; 20.0 μM): 229
- secondary kinase targets [4]: several secondary targets below 5 μM

Compound: Cc1cc(NC(=O)[C@H](O)c2cc(F)cc(F)c2)ccc1-c1cnc(N)c(C(=O)NC(C)C)c1 [LY4, 2-amino-5-[4-[[(2R)-2-(3,5-difluorophenyl)-2-hydroxy-acetyl]amino]-2-methyl-phenyl]-N-isopropyl-pyridine-3-carboxamide]
- IC50 [1]: 48 nM
- IC50 [2]: 18.1 µM
- # kinases inhibited >50% ([3]; 0.2 μM): 19
- # kinases inhibited >50% ([3]; 2.0 μM): 20
- number of kinases with >60% inhibition [3]: 8
- secondary kinase targets [4]: no secondary kinase targets below 15 μM concentration
- inhibition at 0.2 µM [5]: 2%
- inhibition at 2 µM [5]: 18%
- inhibition at 20 µM [5]: 0%
- inhibition at 0.2 µM [6]: 0%
- inhibition at 2 µM [6]: 0%
- inhibition at 20 µM [6]: 28%
- inhibition at 0.2 µM [7]: 0%
- inhibition at 2 µM [7]: 0%
- inhibition at 20 µM [7]: 0%

Compound: Cc1cccc(CC(=O)N2CCc3c2ccc(-c2cn(C)c4ncnc(N)c24)c3F)n1 [GSK2656157, reference compound]
- IC50 [1]: 21 nM
- IC50 [2]: > 200 µM
- # kinases inhibited >50% ([3]; 0.2 μM): 34
- # kinases inhibited >50% ([3]; 2.0 μM): 80
- number of kinases with >60% inhibition [3]: 58
- secondary kinase targets [4]: several secondary targets below 5 μM
- inhibition at 0.2 µM [5]: 0%
- inhibition at 2 µM [5]: 17%
- inhibition at 20 µM [5]: 0%
- inhibition at 0.2 µM [6]: 7%
- inhibition at 2 µM [6]: 13%
- inhibition at 20 µM [6]: 79%
- inhibition at 0.2 µM [7]: 20%
- inhibition at 2 µM [7]: 45%
- inhibition at 20 µM [7]: 67%

Compound: CNC(=O)c1nc(-c2ccc(NC(=O)[C@H](O)c3cc(F)cc(F)c3)cc2C)cnc1N [LY2, 3-amino-6-[4-[[(2R)-2-(3,5-difluorophenyl)-2-hydroxy-acetyl]amino]-2-methyl-phenyl]-N-methyl-pyrazine-2-carboxamide]
- IC50 [1]: 56 nM
- IC50 [2]: 10.8 µM
- # kinases inhibited >50% ([3]; 0.2 μM): 16
- # kinases inhibited >50% ([3]; 2.0 μM): 35
- # kinases inhibited >50% ([3]; 20.0 μM): 138
- secondary kinase targets [4]: several secondary targets below 5 μM
